What was measured:
[1] = target: mutant LNCaP AR (Homo sapiens, UniProt P10275, T878A); settings: LNCaP cells, increasing concentrations of R1881 (10^−12 to 10^−6 M)
[2] = target: endogenous AR (Homo sapiens, UniProt P10275)
[3] = system: HPE cells; experiment: 2D difference gel electrophoresis (DIGE) of hormone-treated HPE cells; type: cell-based, human; settings: 10^−8 M DHT or 10^−5 M flutamide vs (−) hormone
Text: FIGS. 9A-B. Identification of androgen- and flutamide-regulated proteins by 2D difference gel electrophoresis. […] Whole cell proteins were extracted, labeled with the dyes Cy2 (ex 480, em 530), Cy3 (ex 540, em 590), and Cy5 (ex 620, em 680) respectively. The labeled proteins were mixed together and subjected to a pH gradient of pH 4 to pH 7 in the first dimension and separated by PAGE in the second dimension. […] The proteins were excised, subjected to in-gel tryptic digestion and analyzed by MS. The tryptic peptides were identified by searching the protein data bases such as the NCBInr and SWISS- PROT databases. EST databases were also searched with fragmentation data from tandem mass spectrometry when necessary.
Identification of antiandrogen-regulated genes. […] In this study, 8 proteins were identified by tryptic mapping and the sequences verified by partial amino acid sequencing of individual tryptic peptides (FIG. 9B). […] Of particular interest were calreticulin, DJ-1 and non-selenium glutathione peroxidase. Calreticulin binds to the AR DNA binding domain to block AR-activated transcription. Therefore, down-regulation of calreticulin expression would typically facilitate AR binding to the AR binding site to transactivate gene expression (Dedhar et al., 1994). Calreticulin also interacts with integrins during cell attachment and spreading (Coppolino and Dedhar, 1999) and a loss or decrease in calreticulin could potentially increase cell motility and increase HPE cell metastatic potential. The RNA binding protein regulatory subunit DJ-1 has oncogenic potential, transforming NIH3T3 cells in cooperation with ras (Nagakubo et al., 1997). DJ-1 also positively regulates AR-activated transcription by binding PIASx alpha and making it unavailable for the AR:PIASx alpha complex which functions to inhibit AR activation (Takahasi et al., 2001). Non-selenium glutathione peroxidase gene was initially identified as a KGF-regulated gene (Munz et al., 1997) and it is highly expressed in the hyperproliferative epithelium at the wound edge.

Chain of endogenous AR (P10275 whole entry): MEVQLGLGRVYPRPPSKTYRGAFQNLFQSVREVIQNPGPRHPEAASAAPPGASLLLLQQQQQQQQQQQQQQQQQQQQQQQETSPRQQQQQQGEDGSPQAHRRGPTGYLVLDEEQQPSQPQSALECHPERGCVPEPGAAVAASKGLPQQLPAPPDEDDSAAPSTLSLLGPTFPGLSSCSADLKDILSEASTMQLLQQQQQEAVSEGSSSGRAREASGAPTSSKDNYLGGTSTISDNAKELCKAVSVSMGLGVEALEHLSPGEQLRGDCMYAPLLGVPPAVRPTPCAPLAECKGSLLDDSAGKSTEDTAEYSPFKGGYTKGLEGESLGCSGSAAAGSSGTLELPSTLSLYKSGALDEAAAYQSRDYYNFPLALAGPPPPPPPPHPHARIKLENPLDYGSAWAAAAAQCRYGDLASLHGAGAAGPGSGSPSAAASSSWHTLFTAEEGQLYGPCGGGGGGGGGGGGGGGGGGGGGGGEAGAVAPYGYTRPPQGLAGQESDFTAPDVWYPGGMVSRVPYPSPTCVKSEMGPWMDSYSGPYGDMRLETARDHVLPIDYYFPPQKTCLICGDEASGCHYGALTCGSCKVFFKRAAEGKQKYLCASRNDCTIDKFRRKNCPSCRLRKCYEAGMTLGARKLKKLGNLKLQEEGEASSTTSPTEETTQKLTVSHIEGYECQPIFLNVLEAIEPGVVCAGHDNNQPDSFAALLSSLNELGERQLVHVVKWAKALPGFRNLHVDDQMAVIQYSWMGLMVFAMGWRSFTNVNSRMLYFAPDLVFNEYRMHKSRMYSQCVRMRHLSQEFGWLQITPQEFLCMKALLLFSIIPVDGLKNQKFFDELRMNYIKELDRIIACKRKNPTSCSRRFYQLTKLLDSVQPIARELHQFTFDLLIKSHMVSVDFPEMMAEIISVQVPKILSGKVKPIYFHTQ
Chain of mutant LNCaP AR (P10275 whole entry T878A): as the sequence (P10275 whole entry) above, with T878A counted along it

Compound	concentration at which near maximal CAT activity was observed [1]	ARR2PB-activated CAT gene expression on addition of androgen [2]	CAT gene expression on addition of androgen [2]	Calreticulin expression [3]	expression of actin [3]	expression of annexin V [3]	expression of glutathione S-transferase [3]	expression of vimentin [3]
C[C@]1(O)CC[C@H]2[C@@H]3CCC4=CC(=O)CCC4=C3C=C[C@@]21C [R1881]	10^−8 M	did not increase these levels any further	did not increase CAT gene expression any further	–	–	–	–	–
C[C@]12CCC(=O)C[C@@H]1CC[C@@H]1[C@@H]2CC[C@]2(C)[C@@H](O)CC[C@@H]12 [DHT]	–	–	–	increased	down-regulated	down-regulated	down-regulated	down-regulated

— patent US20050112706A1, “Diagnostic and prognostic methods for prostate cancers” (priority 2002, published 2005)
